# Tests used:
# Assay type in all cases: cell-based, human
# [1] = tested on: UACC-62; assay: NCI-60 five-dose assay (melanoma); details: 48 h, SRB; for GI50 / LC50 (concentration killing 50% of cells): Homo sapiens
# [2] = tested on: NCI-H226; assay: NCI-60 five-dose assay (non-small cell lung cancer); details: 48 h, SRB; for GI50 / LC50: Homo sapiens
# [3] = tested on: MALME-3M; assay: NCI-60 five-dose assay (melanoma); details: 48 h, SRB; for GI50 / LC50: Homo sapiens
# [4] = tested on: SF-539; assay: NCI-60 five-dose assay (CNS cancer); details: 48 h, SRB; for GI50 / LC50: Homo sapiens
# [5] = tested on: MDA-MB-468; assay: NCI-60 five-dose assay (breast cancer); details: 48 h, SRB; for GI50 / LC50: Homo sapiens
# [6] = tested on: SF-268; assay: NCI-60 five-dose assay (CNS cancer); details: 48 h, SRB; for GI50 / LC50 (concentration killing 50% of cells): Homo sapiens
# [7] = tested on: UO-31; assay: NCI-60 five-dose assay (renal cancer); details: 48 h, SRB; for GI50 / LC50 (lethal concentration 50%): Homo sapiens
# [8] = tested on: NCI/ADR-RES; assay: NCI-60 five-dose assay (ovarian cancer); details: 48 h, SRB; for GI50 / CC50: Homo sapiens; for CC50: read-out: LC50 (the source's name)
# [9] = tested on: A549/ATCC; assay: NCI-60 five-dose assay (non-small cell lung cancer); details: 48 h, SRB; for GI50 / CC50: Homo sapiens; for CC50: read-out: LC50 (the source's name)
# [10] = tested on: BT-549; assay: NCI-60 one-dose screen (breast cancer); details: 10 µM single dose, 48 h
# [11] = tested on: MDA-MB-231/ATCC; assay: NCI-60 one-dose screen (breast cancer); details: 10 µM single dose, 48 h
# [12] = tested on: MCF7; assay: NCI-60 one-dose screen (breast cancer); details: 10 µM single dose, 48 h
# [13] = tested on: SK-MEL-5; assay: NCI-60 one-dose screen (melanoma); details: 10 µM single dose, 48 h
# Experimental: (§1) The obtained quinolinequinones were submitted to NCI, Bethesda, USA, and, as per standard protocol of NCI, all compounds were evaluated for their antiproliferative activity at single-dose assay (10 µM concentration in DMSO) on a panel of 60 cancer cell lines derived from leukemia, non-small-cell lung, colon, CNS, melanoma, ovarian, renal, prostate, and breast, as per protocol. Tested compounds were added to the microtiter culture plates followed by incubation for 48 h at 37 °C. Sulforhodamine B (SRB), a protein-binding dye, is used for endpoint determination. The percent of the growth of the treated cells was determined in comparison to the untreated control cells and the results of each tested compound were reported. Data from one-dose experiments pertain to the percentage growth at 10 μM [16, 17, 18].
# [14] = tested on: UACC-62; assay: NCI-60 one-dose screen (melanoma); details: 10 µM single dose, 48 h
# Experimental: as §1
# [15] = tested on: SK-MEL-28; assay: NCI-60 one-dose screen (melanoma); details: 10 µM single dose; for GP (growth percentage): 48 h; for inhibition at 10 µM: Homo sapiens
# Experimental: as §1
# [16] = tested on: LOX IMVI; assay: NCI-60 one-dose screen (melanoma); details: 10 µM single dose, 48 h
# Experimental: as §1
# [17] = tested on: MDA-MB-435; assay: NCI-60 one-dose screen (melanoma); details: 10 µM single dose, 48 h
# Experimental: as §1
# [18] = tested on: UACC-257; assay: NCI-60 one-dose screen (melanoma); details: 10 µM single dose, 48 h
# Experimental: as §1
# [19] = tested on: SK-MEL-2; assay: NCI-60 one-dose screen (melanoma); details: 10 µM single dose, 48 h
# Experimental: as §1
# [20] = tested on: 786-0; assay: NCI-60 one-dose screen (renal cancer); details: 10 µM single dose, 48 h
# Experimental: as §1
# [21] = tested on: UO-31; assay: NCI-60 one-dose screen (renal cancer); details: 10 µM single dose, 48 h
# Experimental: as §1
# [22] = tested on: TK-10; assay: NCI-60 one-dose screen (renal cancer); details: 10 µM single dose, 48 h
# Experimental: as §1
# [23] = tested on: ACHN; assay: NCI-60 one-dose screen (renal cancer); details: 10 µM single dose, 48 h
# Experimental: as §1
# [24] = tested on: A498; assay: NCI-60 one-dose screen (renal cancer); details: 10 µM single dose, 48 h
# Experimental: as §1
# [25] = tested on: SN12C; assay: NCI-60 one-dose screen (renal cancer); details: 10 µM single dose, 48 h
# Experimental: as §1
# [26] = tested on: NCI-H522; assay: NCI-60 five-dose assay (non-small cell lung cancer); details: 48 h, SRB; for GI50 / LC50: Homo sapiens
# [27] = tested on: TK-10; assay: NCI-60 five-dose assay (renal cancer); details: 48 h, SRB; for GI50 / LC50 (concentration killing 50% of starting cells): Homo sapiens
# [28] = tested on: MDA-MB-435; assay: NCI-60 five-dose assay (melanoma); details: 48 h, SRB; for GI50 / CC50: Homo sapiens; for CC50: read-out: LC50 (the source's name)
# [29] = tested on: UACC-257; assay: NCI-60 five-dose assay (melanoma); details: 48 h, SRB; for GI50 / LC50 (NCI-60 lethal concentration, 50% cell kill): Homo sapiens
# [30] = tested on: IGROV1; assay: NCI-60 five-dose assay (ovarian cancer); details: SRB; for TGI: 48 h; for GI50 / LC50: Homo sapiens, IGROV-1, 48 h
# [31] = tested on: PC-3; assay: NCI-60 one-dose screen (prostate cancer); details: 10 µM single dose; for GP (growth percentage): 48 h; for inhibition at 10 µM: Homo sapiens
# Experimental: as §1
# [32] = tested on: DU-145; assay: NCI-60 one-dose screen (prostate cancer); details: 10 µM single dose, 48 h
# Experimental: as §1
# [33] = tested on: U251; assay: NCI-60 five-dose assay (CNS cancer); details: SRB; for TGI: 48 h; for GI50 / LC50 (concentration killing 50% of cells): Homo sapiens, U-251, 48 h
# [34] = tested on: NCI-H460; assay: NCI-60 five-dose assay (non-small cell lung cancer); details: 48 h, SRB; for GI50 / CC50: Homo sapiens; for CC50: read-out: LC50 (the source's name)
# [35] = tested on: HOP-92; assay: as above; details: 48 h, SRB; for GI50 / LC50 (50% lethal concentration): Homo sapiens
# [36] = tested on: RPMI-8226; assay: NCI-60 five-dose assay (leukemia); details: 48 h, SRB; for GI50 / CC50: Homo sapiens; for CC50: read-out: LC50 (the source's name)
# [37] = tested on: SK-MEL-2; assay: NCI-60 five-dose assay (melanoma); details: 48 h, SRB; for GI50 / CC50: Homo sapiens; for CC50: read-out: LC50 (the source's name)
smiles,measurement,setting,value
COc1ccccc1NC1=C(Cl)C(=O)c2nc(C)ccc2C1=O [AQQ1],TGI,[1],3.37 µM
same,GI50,[1],1.82 µM
same,LC50 (concentration killing 50% of cells),[1],6.25 µM
same,TGI,[2],4.52 µM
same,GI50,[2],1.93 µM
same,LC50,[2],14.1 µM
same,TGI,[3],3.19 µM
same,GI50,[3],1.71 µM
same,LC50,[3],5.95 µM
same,TGI,[4],3.13 µM
same,GI50,[4],1.68 µM
same,LC50,[4],5.81 µM
same,TGI,[5],3.06 µM
same,GI50,[5],1.52 µM
same,LC50,[5],6.16 µM
same,TGI,[6],3.05 µM
same,GI50,[6],1.53 µM
same,LC50 (concentration killing 50% of cells),[6],6.06 µM
same,TGI,[7],2.73 µM
same,GI50,[7],1.42 µM
same,LC50 (lethal concentration 50%),[7],5.26 µM
same,TGI,[8],5.16 µM
same,GI50,[8],2.03 µM
same,CC50,[8],34.6 µM
same,TGI,[9],6.24 µM
same,GI50,[9],2.44 µM
same,CC50,[9],45.2 µM
same,GP (growth percentage),[10],83.54%
same,GP (growth percentage),[11],−57.30%
same,GP (growth percentage),[12],−60.38%
same,GP (growth percentage),[13],−93.34%
same,GP (growth percentage),[14],−45.84%
same,GP (growth percentage),[15],14.13%
same,inhibition at 10 µM,[15],85.9%
same,GP (growth percentage),[16],−72.99%
same,GP (growth percentage),[17],−85.96%
same,GP (growth percentage),[18],−82.67%
same,GP (growth percentage),[19],78.82%
same,GP (growth percentage),[20],9.17%
same,GP (growth percentage),[21],−65.68%
same,GP (growth percentage),[22],147.78%
same,GP (growth percentage),[23],−99.93%
same,GP (growth percentage),[24],71.81%
same,GP (growth percentage),[25],−49.46%
same,TGI,[26],3.36 µM
same,GI50,[26],1.81 µM
same,LC50,[26],6.24 µM
same,TGI,[27],3.86 µM
same,GI50,[27],2.34 µM
same,LC50 (concentration killing 50% of starting cells),[27],6.36 µM
same,TGI,[28],3.11 µM
same,GI50,[28],1.7 µM
same,CC50,[28],5.67 µM
same,TGI,[29],3.09 µM
same,GI50,[29],1.57 µM
same,"LC50 (NCI-60 lethal concentration, 50% cell kill)",[29],6.11 µM
same,TGI,[30],2.92 µM
same,GI50,[30],1.46 µM
same,LC50,[30],5.86 µM
same,GP (growth percentage),[31],27.39%
same,inhibition at 10 µM,[31],72.6%
same,GP (growth percentage),[32],−57.26%
same,TGI,[33],3.73 µM
same,GI50,[33],1.85 µM
same,LC50 (concentration killing 50% of cells),[33],7.53 µM
same,TGI,[34],12 µM
same,GI50,[34],3.22 µM
same,CC50,[34],52.7 µM
same,TGI,[35],3.30 µM
same,GI50,[35],1.85 µM
same,LC50 (50% lethal concentration),[35],5.91 µM
same,TGI,[36],4.61 µM
same,GI50,[36],1.57 µM
same,CC50,[36],> 100 µM
same,TGI,[37],3.34 µM
same,GI50,[37],1.81 µM
same,CC50,[37],6.19 µM
CCOc1ccccc1NC1=C(Cl)C(=O)c2nc(C)ccc2C1=O [AQQ2],TGI,[1],3.36 µM
same,GI50,[1],1.8 µM
same,LC50 (concentration killing 50% of cells),[1],6.28 µM
same,TGI,[2],4.24 µM
same,GI50,[2],1.78 µM
same,LC50,[2],16.2 µM
same,TGI,[3],2.77 µM
same,GI50,[3],1.36 µM
same,LC50,[3],5.64 µM
same,TGI,[4],3.09 µM
same,GI50,[4],1.67 µM
same,LC50,[4],5.71 µM
same,TGI,[5],2.88 µM
same,GI50,[5],1.45 µM
same,LC50,[5],5.71 µM
same,TGI,[6],2.94 µM
same,GI50,[6],1.47 µM
same,LC50 (concentration killing 50% of cells),[6],5.87 µM
same,TGI,[7],2.71 µM
same,GI50,[7],1.4 µM
same,LC50 (lethal concentration 50%),[7],5.23 µM
same,TGI,[8],5.09 µM
same,GI50,[8],1.89 µM
same,CC50,[8],> 100 µM
same,TGI,[9],4.64 µM
same,GI50,[9],2.06 µM
same,CC50,[9],12.9 µM
same,GP (growth percentage),[10],44.40%
same,GP (growth percentage),[11],−63.63%
same,GP (growth percentage),[12],−59.68%
same,GP (growth percentage),[13],−97.76%
same,GP (growth percentage),[14],−29.14%
same,GP (growth percentage),[15],14.55%
same,inhibition at 10 µM,[15],85.5%
same,GP (growth percentage),[16],−82.20%
same,GP (growth percentage),[17],−85.72%
same,GP (growth percentage),[18],−88.33%
same,GP (growth percentage),[19],−15.72%
same,GP (growth percentage),[20],−88.18%
same,GP (growth percentage),[21],−92.96%
same,GP (growth percentage),[22],124.08%
same,GP (growth percentage),[23],−99.15%
same,GP (growth percentage),[24],78.84%
same,GP (growth percentage),[25],−50.97%
same,TGI,[26],3.28 µM
same,GI50,[26],1.74 µM
same,LC50,[26],6.18 µM
same,TGI,[27],3.72 µM
same,GI50,[27],2.25 µM
same,LC50 (concentration killing 50% of starting cells),[27],6.18 µM
same,TGI,[28],0.671 µM
same,GI50,[28],0.266 µM
same,CC50,[28],2.45 µM
same,TGI,[29],2.61 µM
same,GI50,[29],1.28 µM
same,"LC50 (NCI-60 lethal concentration, 50% cell kill)",[29],5.34 µM
same,TGI,[30],2.82 µM
same,GI50,[30],1.37 µM
same,LC50,[30],5.84 µM
same,GP (growth percentage),[31],4.34%
same,inhibition at 10 µM,[31],95.7%
same,GP (growth percentage),[32],−85.02%
same,TGI,[33],3.27 µM
same,GI50,[33],1.7 µM
same,LC50 (concentration killing 50% of cells),[33],6.28 µM
same,TGI,[34],11.4 µM
same,GI50,[34],3.02 µM
same,CC50,[34],45.4 µM
same,TGI,[35],3.33 µM
same,GI50,[35],1.8 µM
same,LC50 (50% lethal concentration),[35],6.13 µM
same,TGI,[36],4.71 µM
same,GI50,[36],1.2 µM
same,CC50,[36],> 100 µM
same,TGI,[37],2.86 µM
same,GI50,[37],1.44 µM
same,CC50,[37],5.69 µM
